Results as given in patent US7851474B2, “Dipiperazinyl ketones and related analogues” (Neurogen Corporation, priority 2005, dated 2010).
pKi: −log10 of the molar value.

The compounds below were run against T1, chimeric human H3 receptor (Homo sapiens, UniProt Q9Y5N1, E19D) (assay: Chimeric human H3 receptor GTP binding assay (agonist-stimulated GTP-gamma35S binding, Example 7)). Settings: assay of Example 7; "*" in Ki of Table II; read-out: Ki.
T1 construct: made in house; host or cells: Sf9 insect cells (baculovirus infection); P2 membrane preparation
T1 sequence (Q9Y5N1 with tags, fused parts or gaps E19D): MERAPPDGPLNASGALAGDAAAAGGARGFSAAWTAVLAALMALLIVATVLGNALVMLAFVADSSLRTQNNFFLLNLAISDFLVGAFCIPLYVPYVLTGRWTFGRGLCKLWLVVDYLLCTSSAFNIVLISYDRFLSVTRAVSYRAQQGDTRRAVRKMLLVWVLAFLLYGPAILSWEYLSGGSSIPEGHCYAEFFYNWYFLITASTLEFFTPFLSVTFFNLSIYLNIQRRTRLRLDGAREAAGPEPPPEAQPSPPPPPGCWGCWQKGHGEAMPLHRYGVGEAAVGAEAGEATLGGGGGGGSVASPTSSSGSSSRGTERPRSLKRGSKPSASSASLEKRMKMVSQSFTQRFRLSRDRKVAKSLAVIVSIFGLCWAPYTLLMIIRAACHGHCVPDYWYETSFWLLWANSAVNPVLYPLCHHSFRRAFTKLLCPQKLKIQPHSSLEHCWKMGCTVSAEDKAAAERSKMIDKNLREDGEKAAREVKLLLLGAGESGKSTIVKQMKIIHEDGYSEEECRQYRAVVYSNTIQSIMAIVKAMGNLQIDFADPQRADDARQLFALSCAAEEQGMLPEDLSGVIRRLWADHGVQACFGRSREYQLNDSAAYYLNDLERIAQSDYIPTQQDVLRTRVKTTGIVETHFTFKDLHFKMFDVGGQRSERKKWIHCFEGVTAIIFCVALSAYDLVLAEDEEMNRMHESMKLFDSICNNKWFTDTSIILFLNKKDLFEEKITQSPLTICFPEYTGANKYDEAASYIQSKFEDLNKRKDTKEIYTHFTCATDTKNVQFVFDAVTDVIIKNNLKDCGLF
Type: biochemical
Outline: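 IC50 values come from non-linear regression of dose-response curves of filter-bound GTP-gamma^35S, counted by scintillation. Membranes were from infected Sf9 cells carrying receptor plus G-protein subunits, 35 μg/tube, with 10 μM GDP present.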
In the case of `CCOc1cccc(C(=O)NC2CCN(CC(=O)N3CCN(C4CCC4)CC3)C2)c1` (centres unmarked) [Compound 1239, N-{1-[2-(4-cyclobutylpiperazin-1-yl)-2-oxoethyl]pyrrolidin-3-yl}-3-ethoxybenzamide], the pKi was > 6.00. For `CSc1ccc(C(=O)NC2CCN(CC(=O)N3CCN(C4CCC4)CC3)C2)cc1` (centres unmarked) [Compound 1241, N-{1-[2-(4-cyclobutylpiperazin-1-yl)-2-oxoethyl]pyrrolidin-3-yl}-4-(methylthio)benzamide], the pKi was > 6.00. `CCSc1ccc(C(=O)NC2CCN(CC(=O)N3CCN(C4CCC4)CC3)C2)cc1` (centres unmarked) [Compound 1242, N-{1-[2-(4-cyclobutylpiperazin-1-yl)-2-oxoethyl]pyrrolidin-3-yl}-4-(ethylthio)benzamide] was tested, and the pKi was > 6.00. For `COc1ccc(C(=O)NC2CCN(CC(=O)N3CCN(C4CCC4)CC3)C2)cc1F` (centres unmarked) [Compound 1243, N-{1-[2-(4-cyclobutylpiperazin-1-yl)-2-oxoethyl]pyrrolidin-3-yl}-3-fluoro-4-methoxybenzamide], the pKi was > 6.00. With `O=C(NC1CCN(CC(=O)N2CCN(C3CCC3)CC2)C1)c1ccc(Oc2ccccc2)cc1` (centres unmarked) [Compound 1244, N-{1-[2-(4-cyclobutylpiperazin-1-yl)-2-oxoethyl]pyrrolidin-3-yl}-4-phenoxybenzamide] the pKi was > 6.00. With `CC(C)CC(=O)NC1CCN(CC(=O)N2CCN(C3CCC3)CC2)C1` (centres unmarked) [Compound 1246, N-{1-[2-(4-cyclobutylpiperazin-1-yl)-2-oxoethyl]pyrrolidin-3-yl}-3-methylbutanamide] the pKi was > 6.00. `CC(C)CCC(=O)NC1CCN(CC(=O)N2CCN(C3CCC3)CC2)C1` (centres unmarked) [Compound 1247, N-{1-[2-(4-cyclobutylpiperazin-1-yl)-2-oxoethyl]pyrrolidin-3-yl}-4-methylpentanamide] was tested, and the pKi was > 6.00. With `O=C(CC1CCCC1)NC1CCN(CC(=O)N2CCN(C3CCC3)CC2)C1` (centres unmarked) [Compound 1248, N-{1-[2-(4-cyclobutylpiperazin-1-yl)-2-oxoethyl]pyrrolidin-3-yl}-2-cyclopentylacetamide] the pKi was > 6.00. In the case of `O=C(CC1CCCCC1)NC1CCN(CC(=O)N2CCN(C3CCC3)CC2)C1` (centres unmarked) [Compound 1249, N-{1-[2-(4-cyclobutylpiperazin-1-yl)-2-oxoethyl]pyrrolidin-3-yl}-2-cyclohexylacetamide], the pKi was > 6.00. With `O=C(CCC1CCCC1)NC1CCN(CC(=O)N2CCN(C3CCC3)CC2)C1` (centres unmarked) [Compound 1250, N-{1-[2-(4-cyclobutylpiperazin-1-yl)-2-oxoethyl]pyrrolidin-3-yl}-3-cyclopentylpropanamide] the pKi was > 6.00. For `CCC(C)CC(=O)NC1CCN(CC(=O)N2CCN(C3CCC3)CC2)C1` (centres unmarked) [Compound 1251, N-{1-[2-(4-cyclobutylpiperazin-1-yl)-2-oxoethyl]pyrrolidin-3-yl}-3-methylpentanamide], the pKi was > 6.00. `CC(C)(C)CC(=O)NC1CCN(CC(=O)N2CCN(C3CCC3)CC2)C1` (centres unmarked) [Compound 1252, N-{1-[2-(4-cyclobutylpiperazin-1-yl)-2-oxoethyl]pyrrolidin-3-yl}-3,3-dimethylbutanamide] was tested, and the pKi was > 6.00. In the case of `O=C(NC1CCN(CC(=O)N2CCN(C3CCC3)CC2)C1)c1ccccc1` (centres unmarked) [Compound 1253, N-{1-[2-(4-cyclobutylpiperazin-1-yl)-2-oxoethyl]pyrrolidin-3-yl}benzamide], the pKi was > 6.00. In the case of `O=C(NC1CCN(CC(=O)N2CCN(C3CCC3)CC2)C1)c1ccc(-c2ccccc2)cc1` (centres unmarked) [Compound 1254, N-{1-[2-(4-cyclobutylpiperazin-1-yl)-2-oxoethyl]pyrrolidin-3-yl}biphenyl-4-carboxamide], the pKi was > 6.00. With `O=C(NC1CCN(CC(=O)N2CCN(C3CCC3)CC2)C1)C1CC2CCC1C2` (centres unmarked) [Compound 1255, N-{1-[2-(4-cyclobutylpiperazin-1-yl)-2-oxoethyl]pyrrolidin-3-yl}bicyclo[2.2.1]heptane-2-carboxamide] the pKi was > 6.00. `O=C(NC1CCN(CC(=O)N2CCN(C3CCC3)CC2)C1)C1CCCCC1` (centres unmarked) [Compound 1256, N-{1-[2-(4-cyclobutylpiperazin-1-yl)-2-oxoethyl]pyrrolidin-3-yl} cyclohexanecarboxamide] was tested, and the pKi was > 6.00. With `CCCCC(=O)NC1CCN(CC(=O)N2CCN(C3CCC3)CC2)C1` (centres unmarked) [Compound 1257, N-{1-[2-(4-cyclobutylpiperazin-1-yl)-2-oxoethyl]pyrrolidin-3-yl}pentanamide] the pKi was > 6.00. `CC(=O)NC1CCN(CC(=O)N2CCN(C3CCCC3)CC2)C1` (centres unmarked) [Compound 1258, N-{1-[2-(4-cyclopentylpiperazin-1-yl)-2-oxoethyl]pyrrolidin-3-yl}acetamide] was tested, and the pKi was > 6.00. With `CC(=O)NC1CCN(CC(=O)N2CCN(C(C)C)CC2)C1` (centres unmarked) [Compound 1259, N-{1-[2-(4-isopropylpiperazin-1-yl)-2-oxoethyl]pyrrolidin-3-yl}acetamide] the pKi was > 6.00. In the case of `C=CCNC(=O)c1cccc(N2CCN(CC(=O)N3CCN(C4CCC4)CC3)CC2)c1` [Compound 1260, N-allyl-3-{4-[2-(4-cyclobutylpiperazin-1-yl)-2-oxoethyl]piperazin-1-yl}benzamide], the pKi was > 6.00. With `C=CCNC(=O)c1ccc(N2CCN(CC(=O)N3CCN(C4CCC4)CC3)CC2)cc1` [Compound 1261, N-allyl-4-{4-[2-(4-cyclobutylpiperazin-1-yl)-2-oxoethyl]piperazin-1-yl}benzamide] the pKi was > 6.00. `C=CCNC(=O)c1ccc(N2CCN(CC(=O)N3CCN(C4CCC4)CC3)CC2)nc1` [Compound 1262, N-allyl-6-{4-[2-(4-cyclobutylpiperazin-1-yl)-2-oxoethyl]piperazin-1-yl}nicotinamide] was tested, and the pKi was > 6.00. With `CCCCNC(=O)c1cccc(N2CCN(CC(=O)N3CCN(C4CCC4)CC3)CC2)c1` [Compound 1263, N-butyl-3-{4-[2-(4-cyclobutylpiperazin-1-yl)-2-oxoethyl]piperazin-1-yl}benzamide] the pKi was > 6.00. For `CCCCNC(=O)c1ccc(N2CCN(CC(=O)N3CCN(C4CCC4)CC3)CC2)cc1` [Compound 1264, N-butyl-4-{4-[2-(4-cyclobutylpiperazin-1-yl)-2-oxoethyl]piperazin-1-yl}benzamide], the pKi was > 6.00. In the case of `CCCCNC(=O)c1ccc(N2CCN(CC(=O)N3CCN(C4CCC4)CC3)CC2)nc1` [Compound 1265, N-butyl-6-{4-[2-(4-cyclobutylpiperazin-1-yl)-2-oxoethyl]piperazin-1-yl}nicotinamide], the pKi was > 6.00. With `O=C(NC1CCC1)c1cccc(N2CCN(CC(=O)N3CCN(C4CCC4)CC3)CC2)c1` [Compound 1266, N-cyclobutyl-3-{4-[2-(4-cyclobutylpiperazin-1-yl)-2-oxoethyl]piperazin-1-yl}benzamide] the pKi was > 6.00. In the case of `O=C(NC1CCC1)c1ccc(N2CCN(CC(=O)N3CCN(C4CCC4)CC3)CC2)nc1` [Compound 1268, N-cyclobutyl-6-{4-[2-(4-cyclobutylpiperazin-1-yl)-2-oxoethyl]piperazin-1-yl}nicotinamide], the pKi was > 6.00. For `CC(=O)c1ccc(N2C[C@@H](C)N(CC(=O)N3CCN(C4CCC4)CC3)[C@@H](C)C2)cc1` [Compound 1270, rel-1-(4-{(3R,5S)-4-[2-(4-cyclobutylpiperazin-1-yl)-2-oxoethyl]-3,5-dimethylpiperazin-1-yl}phenyl)ethanone], the pKi was > 6.00. With “N-{1-[2-(4- cyclobutylpiperazin-1-yl)- 2-oxoethyl]piperldin-4-yl}- 2-naphthamide [Compound 1207]” the pKi was > 6.00.

These compounds were tested against T1, chimeric human H3 receptor (assay: Chimeric human H3 receptor screening GTP binding assay (inhibition of histamine-stimulated GTP-gamma35S binding, Example 8)). Settings: 1 h; assay described in Example 8; symbol + in column headed Ki of Table II; read-out: percent inhibition of agonist-induced GTP-gammaS binding to H3.
Type: biochemical
Procedure: This Example illustrates a representative screening assay for evaluating inhibition of histamine-stimulated GTP-gamma^35S binding. Such GTP binding activity can be used to identify H3 antagonists and inverse agonists. A compound analyzed in this assay is referred to herein as a “test compound,” and the initial identification of antagonists and inverse agonists is performed using a test compound concentration of 4 μM.
Four independent baculoviral stocks (one directing the expression of the chimeric human H3 receptor and three directing the expression of each of the three subunits of a heterotrimeric G-protein) are used to infect a culture of Sf9 cells as described above. P2 membranes are prepared as described above, and are resuspended by Dounce homogenization (tight pestle) in GTP binding assay buffer (50 mM Tris pH 7.4, 120 mM NaCl, 5 mM MgCl2, 2 mM EGTA, 1 mg/ml BSA, 0.2 mg/ml bacitracin, 0.02 mg/ml aprotinin, 0.01 mg/ml saponin, 10 μM GDP) and added to assay tubes at a concentration of 35 μg protein/reaction tube. Non-radiolabeled test compounds are added to separate reactions at a concentration of 4 μM along with 1 μM histamine (agonist). Reactions are initiated by the addition of 125 pM GTP-gamma^35S with a final assay volume of 0.20 ml.
After a 60-min incubation at room temperature, reactions are terminated by vacuum filtration over GF/C filters (pre-soaked in 50 mM Tris pH 7.4, 120 mM NaCl plus 0.1% BSA) followed by washing with ice-cold buffer (50 mM Tris pH 7.4, 120 mM NaCl). The amount of receptor-bound (and thereby membrane-bound) GTP-gamma^35S is determined by measuring the bound radioactivity, preferably by liquid scintillation spectrometry of the washed filters. Non-specific binding is determined using 10 uM GTP-gammaS and typically represents less than 5 percent of total binding. After subtraction of non-specific binding, data is expressed as percent inhibition of 1 μM histamine signal.
Neutral antagonists are those test compounds that reduce the histamine-stimulated GTP binding activity towards, but not below, baseline levels. In contrast, in the absence of added histamine, inverse agonists reduce the GTP binding activity of the receptor-containing membranes below baseline. Any test compound that elevates GTP binding activity above baseline in the absence of added histamine in this assay is defined as having agonist activity.
`O=C(CN1CCN(C(=O)c2cccnc2Sc2ccc(Cl)cc2)CC1)N1CCN(C2CCC2)CC1` [Compound 256, 1-({2-[(4-chlorophenyl)thio]pyridin-3-yl}carbonyl)-4-[2-(4-cyclobutylpiperazin-1-yl)-2-oxoethyl]piperazine] was tested, and the inhibition at 4 µM was > 90%. `O=C(Cc1ccc2c(c1)OCO2)N1CCN(CC(=O)N2CCN(C3CCC3)CC2)CC1` [Compound 259, 1-(1,3-benzodioxol-5-ylacetyl)-4-[2-(4-cyclobutylpiperazin-1-yl)-2-oxoethyl]piperazine] was tested, and the inhibition at 4 µM was > 90%. In the case of `O=C(CN1CCN(C(=O)c2ccc3c(c2)OCO3)CC1)N1CCN(C2CCC2)CC1` [Compound 260, 1-(1,3-benzodioxol-5-ylcarbonyl)-4-[2-(4-cyclobutylpiperazin-1-yl)-2-oxoethyl]piperazine], the inhibition at 4 µM was > 90%.
